Data published in patent publication US20230242558A1, “NICOTINATE AND NICOTINAMIDE RIBOSIDE-BASED COMPOUNDS AND DERIVATIVES THEREOF” (New Frontier Bio, Inc., priority 2022, published 2023).

Tests used:
HaCaT cells = experiment: NAD assay in HaCaT cells, total NAD level normalized to protein; assay type: cell-based; conditions: 4 hours incubation, concentration not given
Method: The biological activity of certain compounds disclosed herein was determined using the following method: • 1. Plate HaCaT cells in 12-well tissue culture plates at a density of 200,000 cells per well in 0.75 mL DMEM growth medium. Incubate overnight at 37° C. in a incubator at 5% CO2. • 2. Next day, prepare dilutions of each compound in growth medium at the desired final concentration. • 3. Incubate cells as above for 4 hours. • 4. After the incubation, wash cell monolayers in each well with 200 uL PBS and add 200 uL 0.25% Trypsin. Let cells lift for 15 minutes. • 5. Once cells are lifted, collect cells into sterile 1.5 mL Eppendorf tube containing 400 uL of DMEM w/2% HI FBS. • 6. Centrifuge tubes for 500×g for 5 min. • 7. Aspirate supernatant and wash cells with 200 uL of cold PBS. • 8. Centrifuge tubes for 500×g for 5 min. • 9. Aspirate supernatant and add 400 μL of cold extraction buffer (provided in the NAD assay kit) and vortex each tube for 10 seconds. • 10. Centrifuge samples at 13,000×g for 10 min to remove insoluble material. • 11. Use a small aliquot of extract to determine total protein concentration by BCA protein assay kit. • 12. Deproteinize samples by filtering them through a 10 kDa cut-off spin filter. Centrifuge at 13,000×g for 10 min. • 13. After cell lysate is filtered, load 25 uL of samples to 96 well plate for NAD assay. • 14. Add 25 uL of extraction buffer to each well with samples to dilute them 1:2. Add 50 uL of standards to appropriate wells. • 15. Set up master reaction mix of cycling buffer and NAD cycling enzyme mix. Add 100 uL of mix to each well and incubate for […]. • 16. Add 10 uL of developer into each well. • 17. Let plate incubate at room temperature for 1 hr. • 18. Stop the reaction by adding 10 uL of stop solution into each well and mix well. • 19. Measure absorbance at 450 nm using plate reader. • 20. Plot standard curve and normalize data to determine total NAD level.

NHDF cells = experiment: General NAD Assay Procedure: total NAD level in NHDF cells (NAD/NADH Quantification Kit); assay type: cell-based; conditions: for increase in NAD levels compared with NMN: 6-hour time point, all concentrations
Method: NHDF cells (Lonza Cat #CC-2511) were plated in 12-well tissue culture plates at a density of 200,000 cells per well in 0.75 mL growth medium (Lonza FGM-2 cat #CC-3132 containing growth factors; cat #CC-4126). The plates were then incubated overnight at 37° C. in a humidified atmosphere of 5% CO2. The next day, dilutions of each test article were prepared in growth medium at 4× the desired final concentration. 250 μL of each dilution was added to respective wells to obtain desired concentration in each well. The cells were incubated for the desired length of time.
After the incubation, the cell monolayers in each well were washed with cold PBS. 400 μL of extraction buffer (provided in the NAD assay kit) was added and triturated 5-6 time. The cell lysate was collected in Eppendorf tubes and then flash frozen in a dry ice-methanol bath for 20 min then thawed at room temperature. The freeze-thaw cycle was repeated one additional time. The cell lysates were centrifuged and the supernatant collected stored at −80° C. until use.
An aliquot of extract was used to determine total protein concentration using Pierce BCA kit (Thermo Fisher Cat #23225). The total volumes of each sample were adjusted so that the total protein concentration was same in all samples.
50 μL of standards and each sample were added to appropriate wells of a 96-well plate, and the NAD assay according to the kit manufacturer's instructions (NAD/NADH Quantification Kit; Sigma-Aldrich; Catalog Number MAK037). The absorbance at 450 nm was measured using an Envision plate reader (Perkin Elmer) with default settings. The data was normalized against a blank. A standard curve was plotted and used to determine the total NAD level in each test sample.

SMILES | NAD+ level (HaCaT cells) [pmol/mg protein] | Average Total NAD (pmoles) Concentration from NAD Assay (NHDF cells; 3-Hour, Conc. 5 μM) [pmol] | Average Total NAD (pmoles) Concentration from NAD Assay (NHDF cells; 3-Hour, Conc. 10 μM) [pmol] | Average Total NAD (pmoles) Concentration from NAD Assay (NHDF cells; 3-Hour, Conc. 20 μM) [pmol] | Average Total NAD (pmoles) Concentration from NAD Assay (NHDF cells; 6-Hour, Conc. 5 μM) [pmol] | Average Total NAD (pmoles) Concentration from NAD Assay (NHDF cells; 6-Hour, Conc. 10 μM) [pmol] | Average Total NAD (pmoles) Concentration from NAD Assay (NHDF cells; 6-Hour, Conc. 20 μM) [pmol] | increase in NAD levels compared with NMN (NHDF cells)
O=C(Nc1ccccc1C[P+](c1ccccc1)(c1ccccc1)c1ccccc1)c1cccnc1 | 666 |  |  |  |  |  |  | 
CC(=O)OC[C@H]1O[C@@H]([n+]2cccc(C(=O)NCc3ccccc3)c2)[C@H](OC(C)=O)[C@@H]1OC(C)=O | 399 |  |  |  |  |  |  | 
CC(=O)OCC1OC([n+]2cccc(C(=O)Oc3c(C)c(C)c4c(c3C)CC[C@@](C)(CCC[C@H](C)CCC[C@H](C)CCCC(C)C)O4)c2)C(OC(C)=O)C1OC(C)=O (stereo partly drawn) | 301 |  |  |  |  |  |  | 
O=C(Cc1ccccc1Nc1c(Cl)cccc1Cl)OCCOC(=O)c1cccnc1 | <1 |  |  |  |  |  |  | 
CC1=C(/C=C/C(C)=C/C=C/C(C)=C/C(=O)OCCOC(=O)c2cccnc2)C(C)(C)CCC1 | 788 |  |  |  |  |  |  | 
NC(=O)c1ccc[n+]([C@@H]2O[C@H](COP(=O)([O-])O)[C@@H](O)[C@H]2O)c1 [NMN, nicotinamide mononucleotide, reference compound] |  | 48.5 | 63.5 | 63.1 | 50.9 | 54.9 | 58.6 | 
O=C(O)c1ccc[n+]([C@@H]2O[C@H](COP(=O)(O)O)[C@@H](O)[C@H]2O)c1 [Sample 1, Nicotinic acid mononucleotide] |  | 38.1 | 55.0 | 59.0 | 72.6 | 77.8 | 79.4 | 
O=C(NCCCCCC[P+](c1ccccc1)(c1ccccc1)c1ccccc1)c1ccc[n+]([C@@H]2O[C@H](COP(=O)(O)O)[C@@H](O)[C@H]2O)c1 [Sample 2, 1-((2R,3R,4S,5R)-3,4-dihydroxy-5-((phosphonooxy)methyl)tetrahydrofuran-2-yl)-3-((6-(triphenylphosphonio)hexyl)carbamoyl)pyridin-1-ium] |  | 35.5 | 45.5 | 59.3 | 82.2 | 82.0 | 74.5 | greater increase in NAD levels than NMN
O=C(NCCCCCC[P+](c1ccccc1)(c1ccccc1)c1ccccc1)c1cccnc1 [Sample 5] |  | 41.6 | 57.5 | 60.0 | 68.2 | 77.0 | 76.0 | greater increase in NAD levels than NMN
O=C(NCCCCCC[P+](c1ccccc1)(c1ccccc1)c1ccccc1)c1cccnc1 [drawing 171] | 217 |  |  |  |  |  |  | 
O=C(NCCCCCC[P+](c1ccccc1)(c1ccccc1)c1ccccc1)c1ccc[n+]([C@@H]2O[C@H](COP(=O)(O)O)[C@@H](O)[C@H]2O)c1 [drawing 172] | 449 |  |  |  |  |  |  | 
